In paper doi:10.1101/2024.08.19.608619, “Discovery of potent SARS-CoV-2 nsp3 macrodomain inhibitors uncovers lack of translation to cellular antiviral response” (bioRxiv, 2024):
Where two headings read alike, the source gives them in different places.

Tests used:
[1] = biological target: T1, SARS-CoV-2 nsp3-mac1 (Severe acute respiratory syndrome coronavirus 2, UniProt P0DTD1); assay: biochemical; format: biochemical; details: SARS-CoV-2 nsp3 macrodomain TR-FRET single point, n=2
[2] = biological target: T1, SARS-CoV-2 nsp3-mac1; assay: biochemical; set-up: SARS-CoV-2 nsp3 macrodomain TR-FRET single point, per cent inhibition, n=2
[3] = read-out: perc_inhibition_mean, batch_name=ASAP-0000258-001
[4] = read-out: perc_inhibition_mean, batch_name=ASAP-0000260-001
[5] = read-out: perc_inhibition_mean, batch_name=ASAP-0000261-001
[6] = read-out: perc_inhibition_mean, batch_name=ASAP-0000262-001
[7] = read-out: perc_inhibition_mean, batch_name=ASAP-0000263-001
[8] = read-out: perc_inhibition_mean, batch_name=ASAP-0000264-001
[9] = read-out: perc_inhibition_mean, batch_name=ASAP-0000265-001
[10] = read-out: perc_inhibition_mean, batch_name=ASAP-0000267-001
[11] = read-out: perc_inhibition_mean, batch_name=ASAP-0000268-001
[12] = read-out: perc_inhibition_mean, batch_name=ASAP-0000276-001
[13] = read-out: perc_inhibition_mean, batch_name=ASAP-0000277-001
[14] = read-out: perc_inhibition_mean, batch_name=ASAP-0000278-001
[15] = read-out: perc_inhibition_mean, batch_name=ASAP-0000279-001
[16] = read-out: perc_inhibition_mean, batch_name=ASAP-0000280-001
[17] = read-out: perc_inhibition_mean, batch_name=ASAP-0000281-001
[18] = read-out: perc_inhibition_mean, batch_name=ASAP-0000282-001
[19] = read-out: perc_inhibition_mean, batch_name=ASAP-0000283-001
[20] = read-out: perc_inhibition_mean, batch_name=ASAP-0000284-001

SMILES | perc_inhibition_mean ([1]; concentration 50.0 uM) | perc_inhibition_mean ([1]; concentration 100.0 uM) | perc_inhibition_mean ([1]; concentration 49.75 uM) | perc_inhibition_mean ([1]; concentration 99.5 uM) | also measured
O=c1[nH]cnc2[nH]cc(-c3ccoc3)c12 [ASAP-0000258] | -14.47% | -13.824% | – | – | inhibition at 50 µM [2, 3]: -14.5%; inhibition at 100 µM [2, 3]: -13.8%
Oc1cc(CNc2ncnc3[nH]cnc23)ccn1 [ASAP-0000260] | -0.821% | -3.73% | – | – | inhibition at 50 µM [2, 4]: -0.821%; inhibition at 100 µM [2, 4]: -3.73%
O=C(NCc1nc2cccnc2[nH]1)c1cnc2nc[nH]c(=O)c2c1 [ASAP-0000261] | -1.987% | 7.034% | – | – | inhibition at 50 µM [2, 5]: -1.99%; inhibition at 100 µM [2, 5]: 7.03%
c1cc(CNc2ncnc3nc[nH]c23)n2ncnc2c1 [ASAP-0000262] | 1.353% | 10.036% | – | – | inhibition at 50 µM [2, 6]: 1.35%; inhibition at 100 µM [2, 6]: 10%
Cc1[nH]c2ncnc(NCc3ccco3)c2c1C [ASAP-0000263] | 16.967% | 37.474% | – | – | inhibition at 50 µM [2, 7]: 17%; inhibition at 100 µM [2, 7]: 37.5%
Cc1nc(NC(=O)c2nccc3ccncc23)c2cc[nH]c2n1 [ASAP-0000264] | -5.834% | 2.611% | – | – | inhibition at 50 µM [2, 8]: -5.83%; inhibition at 100 µM [2, 8]: 2.61%
CCC(CC)(C(=O)Nc1nc(C)nc2[nH]ccc12)C(=O)OC(C)(C)C [ASAP-0000265] | -9.456% | -4.708% | – | – | inhibition at 50 µM [2, 9]: -9.46%; inhibition at 100 µM [2, 9]: -4.71%
O=C(Nc1cnc2[nH]ncc2c1)c1cccc(-c2noc(C(F)(F)F)n2)c1 [ASAP-0000267] | -0.675% | -1.621% | – | – | inhibition at 50 µM [2, 10]: -0.675%; inhibition at 100 µM [2, 10]: -1.62%
Cc1nc(NC(=O)c2ccnn2C(C)C)c2cc[nH]c2n1 [ASAP-0000268] | -2.642% | -4.346% | – | – | inhibition at 50 µM [2, 11]: -2.64%; inhibition at 100 µM [2, 11]: -4.35%
COC(=O)[C@]1(F)CCN(C(=O)c2ccc(NC(=O)Nc3ccccc3)cc2)C1 [ASAP-0000276] | – | – | -0.893% | 0.834% | inhibition at 49.75 µM [2, 12]: -0.893%; inhibition at 99.5 µM [2, 12]: 0.834%
CN(Cc1cn(C)nn1)C(=O)c1cnn2ccc(C3CCN(C(=O)c4ccccc4)CC3)cc12 [ASAP-0000277] | – | – | 2.174% | 1.337% | inhibition at 49.75 µM [2, 13]: 2.17%; inhibition at 99.5 µM [2, 13]: 1.34%
Cc1ncc(NCc2csc(-c3ccccn3)n2)cn1 [ASAP-0000278] | – | – | -5.23% | -4.487% | inhibition at 49.75 µM [2, 14]: -5.23%; inhibition at 99.5 µM [2, 14]: -4.49%
FC(F)(F)c1nnc2n1CCN(c1ncnc3[nH]ccc13)C2 [ASAP-0000279] | – | – | -1.969% | -1.005% | inhibition at 49.75 µM [2, 15]: -1.97%; inhibition at 99.5 µM [2, 15]: -1%
O=C(c1ccccc1)N1CCC(c2ccn3ncc(C(=O)N4CCc5nc[nH]c5C4)c3c2)CC1 [ASAP-0000280] | – | – | 11.216% | 20.268% | inhibition at 49.75 µM [2, 16]: 11.2%; inhibition at 99.5 µM [2, 16]: 20.3%
Cc1c(-c2cnc3nc[nH]c(=O)c3c2)ccc2[nH]ncc12 [ASAP-0000281] | – | – | -3.121% | -4.364% | inhibition at 49.75 µM [2, 17]: -3.12%; inhibition at 99.5 µM [2, 17]: -4.36%
O=C(NC1CCC(F)(F)CC1)c1ncnc2[nH]ccc12 [ASAP-0000282] | – | – | -3.47% | -5.78% | inhibition at 49.75 µM [2, 18]: -3.47%; inhibition at 99.5 µM [2, 18]: -5.78%
Cc1n[nH]nc1C(=O)N1CCC(c2ccn3ncc(C(=O)N4CCCCC4)c3c2)CC1 [ASAP-0000283] | – | – | 29.33% | 45.786% | inhibition at 49.75 µM [2, 19]: 29.3%; inhibition at 99.5 µM [2, 19]: 45.8%
Cc1nc(C(=O)N2CCC(c3ccn4ncc(C(=O)N5CCCCC5)c4c3)CC2)c(=O)[nH]c1C [ASAP-0000284] | – | – | 26.409% | 44.216% | inhibition at 49.75 µM [2, 20]: 26.4%; inhibition at 99.5 µM [2, 20]: 44.2%
